Our source for the EC50 values is patent US20200172483A1, “HETEROCYCLIC SMALL MOLECULE MODULATORS OF HUMAN STING” (Curadev Pharma Limited, priority 2017, published 2020).

The test system of one experiment is NF-κB pathway. Put plainly: Reporter gene expression assay for NFκB axis in THP1-Dual cells (secreted SEAP). The experiment is classed as cell-based, human. The settings on record: 20 hr stimulation, QUANTI-Blue SEAP, EC50 range, read-out: THP-NFKB activity. On the procedure: (§1) THP1-Dual™ cells (Invivogen) were derived from the human THP-1 monocyte cell line by stable integration of two inducible reporter constructs. As a result, THP1-Dual™ cells allow the simultaneous study of the NF-κB pathway, by monitoring the activity of secreted SEAP, and the IRF pathway, by assessing the activity of a secreted luciferase (Lucia). […] THP1-Dual™ cells were seeded in 384-well plates in growth medium and stimulated with novel compounds. After 20 hr of stimulation supernatant were removed and reporter proteins were readily measured in the cell culture supernatant using QUANTI-Blue™ (Invivogen), a SEAP detection reagent, and QUANTI-Luc™ (Invivogen), a luciferase detection reagent on a Spectramax i3X luminometer. EC50 value ranges for exemplary compounds tested in the above assay are given.

The next experiment addresses T1, hSTING (HAQ) (Homo sapiens, UniProt Q86WV6, G230A/H232R/R293Q/R71H).
T1 construct: host or cells: HEK293T
Put plainly: Luciferase reporter assay in HEK293T-hSTING-Luciferase cells (HAQ polymorph). The experiment is classed as cell-based. The settings on record: EC50 range. From the text:
(§2) • a) Stable STING expressing cells—Stable HEK293T STING-expressing cell lines were generated using plasmids purchased from Invivogen, CA, USA, that contain STING cDNA cloned into the pUNO-1 vector under hEF1-HTLV promoter and containing the Blasticidin selection cassette. The plasmids hSTING (R232), hSTING (H232), hSTING (HAQ) were directly procured from Invivogen while hSTING (AQ) and hSTING (Q) were derived from hSTING (HAQ) and hSTING (R232) plasmids respectively by using a PCR based site directed mutagenesis method. These vectors were individually transfected into HEK293T cells using Lipofectamine (Invitrogen) and transfected cells were selected under Blasticidin selection. These transfected cells were further subjected to clonal selection using the limiting dilution method to obtain clonally pure populations of HEK cells transfected with each of the above mentioned human STING variants. Only those clones were selected in which ligand independent activation of STING was minimal. • b) Stable Luciferase reporter gene expressing cells—Stable HEK293T Luciferase reporter gene expressing cell lines were generated using pCDNA4 plasmids under an IRF-inducible promoter. This promoter is comprised of five tandem interferon-stimulated response elements (ISRE) fused to an ISG54 minimal promoter. This vector was transfected into HEK293T cells using Lipofectamine (Invitrogen) and transfected cells were selected under Zeocin selection. These transfected cells were further subjected to clonal selection using the limiting dilution method to obtain clonally pure populations of HEK cells transfected the Luciferase reporter construct. Only those clones were selected in which ligand independent induction of luciferase was minimal.
(§3) 5×10^5 clonally selected HEK293T-hSTING-Luciferase cells were seeded in 384-well plates in growth medium and stimulated with novel compounds. After 20 hr of stimulation supernatant were removed and secretary reporter gene activity were measured using the Quanti-Luc detection system (Invivogen) on a Spectramax i3X luminometer.
(§4) The 5 major polymorphisms of human STING are shown in FIG. 1, with their prevalence in human populations indicated.
(In general: In a reporter assay the amount or activity of a reporter protein is the signal.)

Another experiment has as its system IRF pathway. The experiment can be described thus: Reporter gene expression assay for IRF axis in THP1-Dual cells (secreted Lucia luciferase). Type of experiment: cell-based, human. As to conditions: 20 hr stimulation, QUANTI-Luc, EC50 range, read-out: THP-IRF activity. On the procedure:
as §1

Another experiment has as its target T2, hSTING (H232) (Homo sapiens, UniProt Q86WV6).
T2 construct: host or cells: HEK293T
The experiment can be described thus: Luciferase reporter assay in HEK293T-hSTING-Luciferase cells (H232/REF polymorph). Type of experiment: cell-based. As to conditions: EC50 range.
Description: as §2, §3, §4

For another experiment, the target named is T3, WT/R232 STING protein (Homo sapiens, UniProt Q86WV6, H232R).
T3 construct: host or cells: HEK293T
T3 sequence (Q86WV6 whole entry H232R): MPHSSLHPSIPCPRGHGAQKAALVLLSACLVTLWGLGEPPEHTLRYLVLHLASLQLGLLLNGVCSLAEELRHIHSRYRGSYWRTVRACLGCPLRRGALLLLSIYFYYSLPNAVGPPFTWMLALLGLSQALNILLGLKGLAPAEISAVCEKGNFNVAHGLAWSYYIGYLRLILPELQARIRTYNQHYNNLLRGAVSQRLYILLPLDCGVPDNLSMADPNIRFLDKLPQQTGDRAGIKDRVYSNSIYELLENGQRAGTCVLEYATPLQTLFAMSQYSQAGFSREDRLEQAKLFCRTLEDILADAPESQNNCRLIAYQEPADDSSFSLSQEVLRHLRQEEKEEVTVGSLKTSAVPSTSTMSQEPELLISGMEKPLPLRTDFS
Put plainly: Luciferase reporter assay in HEK293T-hSTING-Luciferase cells (R232). Type of experiment: cell-based. The settings on record: 20 hr stimulation, EC50 range. In a few lines: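 Clonal HEK293T cells stably expressing human STING R232 plus an ISRE/ISG54-driven secreted luciferase reporter, stimulated with compounds for 20 hr. Luciferase in supernatant read by luminescence; activity given as fold-induction over baseline.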

Like-named read-outs stand apart in the source and are kept apart here.

T1 sequence (Q86WV6 whole entry R71H/G230A/H232R/R293Q): as the sequence (Q86WV6 whole entry H232R) above, with R71H, G230A, R293Q counted along it
T2 sequence (Q86WV6 whole entry): as the sequence (Q86WV6 whole entry H232R) above, with R232H counted along it

Consider `CC1(C)C(=O)N(Cc2c(F)cccc2Cl)c2cc(C(=O)NCc3c(F)cc(F)cc3F)ccc21` [Example 2, 1-(2-chloro-6-fluorobenzyl)-3,3-dimethyl-2-oxo-N-(2,4,6-trifluorobenzyl)indoline-6-carboxamide], for which the EC50 in the experiment on NF-κB pathway (Homo sapiens, THP1-Dual, 20 h) is 1 to 10 µM; at hSTING (HAQ) it was no more than 1 µM; with IRF pathway (Homo sapiens, THP1-Dual, 20 h), 1 to 10 µM; on hSTING (H232) it was no more than 1 µM; on WT/R232 STING protein, no more than 1 µM.

Take `Cc1cccc(CNC(=O)c2ccc3c(c2)N(Cc2cc(F)cc(F)c2)C(=O)C3(C)C)c1` [Example 4, 1-(3,5-difluorobenzyl)-3,3-dimethyl-N-(3-methylbenzyl)-2-oxoindoline-6-carboxamide]: the EC50 is greater than 10 µM in the experiment on NF-κB pathway (Homo sapiens, THP1-Dual, 20 h); 1 to 10 µM on hSTING (HAQ); greater than 10 µM in the experiment on IRF pathway (Homo sapiens, THP1-Dual, 20 h); 1 to 10 µM on hSTING (H232); 1 to 10 µM on WT/R232 STING protein.

For `CC1(C)C(=O)N(Cc2cc(F)cc(F)c2)c2cc(C(=O)NCc3c(F)cc(F)cc3F)ccc21` [Example 5, 1-(3,5-difluorobenzyl)-3,3-dimethyl-2-oxo-N-(2,4,6-trifluorobenzyl)indoline-6-carboxamide], the EC50 in the experiment with NF-κB pathway (Homo sapiens, THP1-Dual, 20 h) is 1 to 10 µM; on hSTING (HAQ), no more than 1 µM; in the experiment with IRF pathway (Homo sapiens, THP1-Dual, 20 h), 1 to 10 µM; on hSTING (H232), no more than 1 µM; at WT/R232 STING protein, no more than 1 µM.

Take `CC1(C)C(=O)N(Cc2ccccc2F)c2cc(C(=O)NCc3c(F)cc(F)cc3F)ccc21` [Example 6, 1-(2-fluorobenzyl)-3,3-dimethyl-2-oxo-N-(2,4,6-trifluorobenzyl)indoline-6-carboxamide]: the EC50 with NF-κB pathway (Homo sapiens, THP1-Dual, 20 h) is 1 to 10 µM; on hSTING (HAQ), no more than 1 µM; with IRF pathway (Homo sapiens, THP1-Dual, 20 h), 1 to 10 µM; on hSTING (H232), no more than 1 µM; at WT/R232 STING protein, no more than 1 µM.

With `Cc1cccc(CNC(=O)c2ccc3c(c2)N(Cc2c(F)cccc2Cl)C(=O)C3(C)C)c1` [Example 8, 1-(2-chloro-6-fluorobenzyl)-3,3-dimethyl-N-(3-methylbenzyl)-2-oxoindoline-6-carboxamide], the EC50 in the experiment with NF-κB pathway (Homo sapiens, THP1-Dual, 20 h) was 1 to 10 µM; on hSTING (HAQ) it was 1 to 10 µM; with IRF pathway (Homo sapiens, THP1-Dual, 20 h) it was greater than 10 µM; at hSTING (H232), 1 to 10 µM; on WT/R232 STING protein it was no more than 1 µM.

Take `CC1(C)C(=O)N(Cc2ccccc2)c2cc(C(=O)NCc3c(F)cc(F)cc3F)ccc21` [Example 11, 1-benzyl-3,3-dimethyl-2-oxo-N-(2,4,6-trifluorobenzyl)indoline-6-carboxamide]: the EC50 is 1 to 10 µM with NF-κB pathway (Homo sapiens, THP1-Dual, 20 h); 1 to 10 µM on hSTING (HAQ); greater than 10 µM in the experiment on IRF pathway (Homo sapiens, THP1-Dual, 20 h); 1 to 10 µM at hSTING (H232); no more than 1 µM at WT/R232 STING protein.

Consider `CC1(C#N)C(=O)N(Cc2cc(F)cc(F)c2)c2cc(C(=O)NCc3c(F)cc(F)cc3F)ccc21` (stereo not drawn) [Example 163, 3-cyano-1-(3,5-difluorobenzyl)-3-methyl-2-oxo-N-(2,4,6-trifluorobenzyl)indoline-6-carboxamide], for which the EC50 with NF-κB pathway and with IRF pathway was 1 to 10 µM in each case.

Regarding `CC1(C#N)C(=O)N(Cc2cc(F)cc(F)c2)c2cc(C(=O)NCc3c(F)cc(F)cc3F)ccc21` (stereo not drawn) [Example 167, 3-cyano-1-(3,5-difluorobenzyl)-3-methyl-2-oxo-N-(2,4,6-trifluorobenzyl)indoline-6-carboxamide], the EC50 in the experiment with NF-κB pathway and with IRF pathway was 1 to 10 µM each time.

`CC1(C#N)C(=O)N(Cc2cc(F)cc(F)c2)c2cc(C(=O)NCc3c(F)cc(F)cc3F)ccc21` (stereo not drawn) [Example 168, 3-cyano-1-(3,5-difluorobenzyl)-3-methyl-2-oxo-N-(2,4,6-trifluorobenzyl)indoline-6-carboxamide]: the EC50 in the experiment with NF-κB pathway and with IRF pathway was greater than 10 µM in each case.

In the case of `CC1(C)C(=O)N(Cc2cc(F)cc(F)c2)c2nc(C(=O)NCCc3c(F)cc(F)cc3F)ccc21` [Example 190, 1-(3,5-difluorobenzyl)-3,3-dimethyl-2-oxo-N-(2,4,6-trifluorophenethyl)-2,3-dihydro-1H-pyrrolo[2,3-b]pyridine-6-carboxamide], on WT/R232 STING protein, the EC50 is greater than 10 µM.

Consider `CC1(C)C(=O)N(Cc2cc(F)cc(F)c2)c2nc(C(=O)NCc3ccc(C#N)cc3)ccc21` [Example 192, N-(4-cyanobenzyl)-1-(3,5-difluorobenzyl)-3,3-dimethyl-2-oxo-2,3-dihydro-1H-pyrrolo[2,3-b]pyridine-6-carboxamide], for which the EC50 on WT/R232 STING protein was 1 to 10 µM.

On to `CC1(C)C(=O)N(Cc2cc(F)cc(F)c2)c2cc(C(=O)NCc3cc4ccccc4o3)cnc21` [Example 193, N-(benzofuran-2-ylmethyl)-1-(3,5-difluorobenzyl)-3,3-dimethyl-2-oxo-2,3-dihydro-1H-pyrrolo[3,2-b]pyridine-6-carboxamide], for which the EC50 at WT/R232 STING protein was greater than 10 µM.

As to `Cc1cccc(F)c1CN1C(=O)C(C)(C)c2ccc(C(=O)NCc3ccc(F)cc3)nc21` [Example 194, 1-(2-fluoro-6-methylbenzyl)-N-(4-fluorobenzyl)-3,3-dimethyl-2-oxo-2,3-dihydro-1H-pyrrolo[2,3-b]pyridine-6-carboxamide], on WT/R232 STING protein, the EC50 was in the range of 1 to 10 µM.

As for `Cc1ccc(CNC(=O)c2ccc3c(n2)N(Cc2c(C)cccc2F)C(=O)C3(C)C)o1` [Example 195, 1-(2-fluoro-6-methylbenzyl)-3,3-dimethyl-N-((5-methylfuran-2-yl)methyl)-2-oxo-2,3-dihydro-1H-pyrrolo[2,3-b]pyridine-6-carboxamide], the EC50 on WT/R232 STING protein was in the range of 1 to 10 µM.

In the case of `Cc1ccc(CNC(=O)c2cnc3c(c2)N(Cc2c(C)cccc2F)C(=O)C3(C)C)o1` [Example 196, 1-(2-fluoro-6-methylbenzyl)-3,3-dimethyl-N-((5-methylfuran-2-yl)methyl)-2-oxo-2,3-dihydro-1H-pyrrolo[3,2-b]pyridine-6-carboxamide], the EC50 on WT/R232 STING protein is greater than 10 µM.

As for `Cc1cccc(F)c1CN1C(=O)C(C)(C)c2ncc(C(=O)NCc3ccc(F)cc3)cc21` [Example 197, 1-(2-fluoro-6-methylbenzyl)-N-(4-fluorobenzyl)-3,3-dimethyl-2-oxo-2,3-dihydro-1H-pyrrolo[3,2-b]pyridine-6-carboxamide], the EC50 at WT/R232 STING protein was greater than 10 µM.

With `CC1(C)C(=O)N(Cc2cc(F)cc(F)c2)c2cc(C(=O)NCc3ccc(F)cc3)cnc21` [Example 198, 1-(3,5-difluorobenzyl)-N-(4-fluorobenzyl)-3,3-dimethyl-2-oxo-2,3-dihydro-1H-pyrrolo[3,2-b]pyridine-6-carboxamide], the EC50 at WT/R232 STING protein lay in the range of 1 to 10 µM.

Turning to `CC1(C)C(=O)N(Cc2cc(F)cc(F)c2)c2cc(C(=O)NCc3ccc(F)cc3F)cnc21` [Example 199, N-(2,4-difluorobenzyl)-1-(3,5-difluorobenzyl)-3,3-dimethyl-2-oxo-2,3-dihydro-1H-pyrrolo[3,2-b]pyridine-6-carboxamide], the EC50 on WT/R232 STING protein was in the range of 1 to 10 µM.

The compound `O=C(NCc1ccco1)c1ccc2oc(=O)n(Cc3ccccc3F)c2c1` [Example 200, 3-(2-Fluorobenzyl)-N-(furan-2-ylmethyl)-2-oxo-2,3-dihydrobenzo[d]oxazole-5-carboxamide] returned an EC50 at WT/R232 STING protein greater than 10 µM.

On to `O=C(NCc1ccco1)c1ccc2sc(=O)n(Cc3c(F)cccc3Cl)c2c1` [Example 201, 3-(2-chloro-6-fluorobenzyl)-N-(furan-2-ylmethyl)-2-oxo-2,3-dihydrobenzo[d]thiazole-5-carboxamide], for which, on WT/R232 STING protein, the EC50 is greater than 10 µM.

As to `Cn1c(=O)n(Cc2ccccc2Cl)c2cc(C(=O)NCc3ccco3)ccc21` [Example 202, 3-(2-chlorobenzyl)-N-(furan-2-ylmethyl)-1-methyl-2-oxo-2,3-dihydro-1H-benzo[d]imidazole-5-carboxamide], the EC50 at WT/R232 STING protein is greater than 10 µM.
